Test results: publication PMC10608878, “Synthesis and Antiproliferative Activity of 2,6-Disubstituted Imidazo[4,5-b]pyridines Prepared by Suzuki Cross Coupling” (Molecules, 2023)
Counter-ions that a name gives are not always drawn.

Assays:
Sindbis virus (SINDV) = assay: Antiviral CPE assay, SINDV in VeroE6; type: cell-based; conditions: Sindbis virus, Vero C1008; VeroE6 host cells
[1] = test system: Semliki Forest virus (SFV); assay: Antiviral CPE assay, SFV in VeroE6; type: cell-based; conditions: Semliki Forest virus, Vero C1008; VeroE6 host cells
Zika virus (ZIKV) = assay: Antiviral CPE assay, ZIKV in VeroE6; type: cell-based; conditions: Zika virus, Vero C1008; VeroE6 host cells
in vitro [2] = conditions: African green monkey
yellow fever virus (YFV) = assay: microbe, parasite or virus in culture; type: cell-based; conditions: Yellow fever virus, Vero C1008, read-out: Antiviral Activity (EC50) YFV VeroE6
[3] = test system: K-562 chronic myeloid leukemia cells; assay: Antiproliferative activity, K-562 cells; type: cell-based, human; conditions: K-562, 72 h incubation
Description: (§1) All prepared imidazo[4,5-b]pyridines were tested for their antiproliferative activity against the following cancer cell lines: LN-229—glioblastoma, Capan-1—pancreatic adenocarcinoma, HCT-116—colorectal carcinoma, NCI-H460—lung carcinoma, DND-41—acute lymphoblastic leukemia, HL-60—acute myeloid leukemia, K-562—chronic myeloid leukemia, and Z-138—non-Hodgkin lymphoma cancer cells. An overview of the results is presented in Table 2 as IC50 values (50% inhibitory concentration). An established antitumor drug, etoposide (ETO), was included for comparison.
(§2) For proliferation assays, the human cancer cell lines used in this manuscript, namely Capan-1, HCT-116, NCI-H460, LN-229, HL-60, K-562, and Z-138, were acquired from the American Type Culture Collection (ATCC, Manassas, VA, USA), while the DND-41 cell line was purchased from the Deutsche Sammlung von Mikroorganismen und Zellkulturen (DSMZ Leibniz-Institut, Braunschweig, Germany). Culture media were purchased from Gibco (Gibco Life Technologies, Merelbeke, Belgium) and supplemented with 10% fetal bovine serum (HyClone, Cytiva, Marlborough, MA, USA). Adherent cell lines LN-229, HCT-116, NCI-H460, and Capan-1 cells were seeded in 384-well tissue culture plates (Greiner, Kremsmünster, Austria) at a density between 500 and 1500 cells per well (500 cells per well for Capan-1, 1000 cells per well for LN-229 and HCT-116, and 1500 cells per well for NCI-H460). The cells were treated with seven different concentrations of the test compounds in a 5-fold dilution series ranging from 100 to 0.006 µM after overnight incubation. Suspension cell lines HL-60, K-562, Z-138, and DND-41 were seeded at densities ranging from 2500 to 5500 cells per well (2500 cells per well for HL-60, K-562, and Z-138, and 5500 cells per well for DND-41) in 384-well culture plates containing the test compounds at the same concentration points. All conditions were incubated for 72 h before measuring the cell viability by the CellTiter 96® AQueous Non-Radioactive Cell Proliferation Assay (Promega, Madison, WA, USA) according to the manufacturer’s instructions. After 3 h, absorbance of all conditions was measured at 490 nm using a SpectraMax Plus 384 (Molecular Devices, San Jose, CA, USA), and the OD values were used to calculate the 50% inhibitory concentration (IC50). Compounds were tested in two independent experiments.

[4] = test system: HCT-116 colorectal carcinoma cells; assay: Antiproliferative activity, HCT-116 cells; type: cell-based, human; conditions: HCT-116, 72 h incubation
Description: as §1, §2

[5] = test system: Capan-1 pancreatic adenocarcinoma cells; assay: Antiproliferative activity, Capan-1 cells; type: cell-based, human; conditions: Capan-1, 72 h incubation
Description: as §1, §2

[6] = test system: Z-138 non-Hodgkin lymphoma cells; assay: Antiproliferative activity, Z-138 cells; type: cell-based, human; conditions: Z-138, 72 h incubation
Description: as §1, §2

[7] = test system: NCI-H460 lung carcinoma cells; assay: Antiproliferative activity, NCI-H460 cells; type: cell-based, human; conditions: NCI-H460, 72 h incubation
Description: as §1, §2

[8] = test system: DND-41 acute lymphoblastic leukemia cells; assay: Antiproliferative activity, DND-41 cells; type: cell-based, human; conditions: DND-41, 72 h incubation
Description: as §1, §2

[9] = test system: HL-60 acute myeloid leukemia cells; assay: Antiproliferative activity, HL-60 cells; type: cell-based, human; conditions: HL-60, 72 h incubation
Description: as §1, §2

[10] = test system: LN-229 glioblastoma cells; assay: Antiproliferative activity, LN-229 cells; type: cell-based, human; conditions: LN-229, 72 h incubation
Description: as §1, §2

[11] = test system: respiratory syncytial virus (RSV) A; assay: Antiviral CPE assay, RSV in Hep-2; type: cell-based; conditions: human respiratory syncytial virus; Hep-2 host cells
[12] = test system: influenza A/H3N2 (A/HK/7/87); assay: Antiviral CPE assay, influenza A/H3N2 in MDCK; type: cell-based; conditions: Influenza A virus, MDCK host cells
in vitro [13] = conditions: dog
[14] = test system: herpes simplex virus-1 (HSV-1 KOS); assay: Antiviral CPE assay, HSV-1 in HEL 299; type: cell-based; conditions: Human alphaherpesvirus 1; HEL 299 host cells
[15] = test system: influenza A/H1N1 (A/Ned/378/05); assay: Antiviral CPE assay, influenza A/H1N1 in MDCK; type: cell-based; conditions: Influenza A virus, MDCK host cells
[16] = test system: human coronavirus HCoV-NL63; assay: Antiviral CPE assay, HCoV-NL63 in Hep3B; type: cell-based; conditions: Hep3B host cells
[17] = test system: human coronavirus HCoV-OC43; assay: Antiviral CPE assay, HCoV-OC43 in HEL 299; type: cell-based; conditions: Betacoronavirus 1, OC43; HEL 299 host cells
[18] = test system: influenza B (B/Ned/537/05); assay: Antiviral CPE assay, influenza B in MDCK; type: cell-based; conditions: Influenza B virus; MDCK host cells
[19] = test system: human coronavirus HCoV-229E; assay: organism not typed; type: cell-based, human coronavirus 229E; conditions: HEL 299 host cells; read-out: Antiviral Activity (EC50) HCoV 229E HEL 299

Row | Structure (SMILES) | IC50 ([3]; Homo sapiens, K562, 72 h) | IC50 ([4]; Homo sapiens, HCT-116, 72 h) | IC50 ([5]; Homo sapiens, CAPAN-1, 72 h) | IC50 ([6]; Homo sapiens, Z-138, 72 h) | IC50 ([7]; Homo sapiens, NCI-H460, 72 h) | IC50 ([8]; Homo sapiens, DND41, 72 h) | IC50 ([9]; Homo sapiens, HL-60, 72 h) | IC50 ([10]; Homo sapiens, LN-229, 72 h) | also measured
1 | CCN(CC)CCCC(C)Nc1ccnc2cc(Cl)ccc12 (stereo not shown) [Chloroquine, chloroquine] | – | – | – | – | – | – | – | – | EC50 (Sindbis virus (SINDV)): 8 µM; EC50 [1]: > 100 µM; EC50 (Zika virus (ZIKV)): 13.4 µM; CC50 (in vitro [2]): 55.8 µM; EC50 (yellow fever virus (YFV)): > 100 µM
2 | c1ccc(-c2cnc3[nH]c(-c4ccccc4)nc3c2)cc1 [Compound 12, 2.6-diphenyl-3H-imidazo[4,5-b]pyridine] | > 100 µM | > 100 µM | 35.3 µM | 30.1 µM | > 100 µM | > 100 µM | 52.3 µM | > 100 µM | –
3 | COc1ccc(-c2cnc3[nH]c(-c4ccccc4)nc3c2)cc1 [Compound 14, 6-(4-methoxyphenyl)-2-phenyl-3H-imidazo [4,5-b]pyridine] | > 100 µM | > 100 µM | > 100 µM | > 100 µM | > 100 µM | > 100 µM | 69.4 µM | > 100 µM | –
4 | O=[N+]([O-])c1ccc(-c2cnc3[nH]c(-c4ccccc4)nc3c2)cc1 [Compound 16, 6-(4-nitrophenyl)-2-phenyl-3H-imidazo[4,5-b]pyridine] | > 100 µM | > 100 µM | > 100 µM | 65.2 µM | > 100 µM | > 100 µM | 79 µM | > 100 µM | –
5 | Nc1ccc(-c2cnc3[nH]c(-c4ccccc4)nc3c2)cc1 [Compound 17, 4-(2-phenyl-3H-imidazo [4,5-b]pyridin-6-yl)aniline] | 83.2 µM | > 100 µM | – | 40.9 µM | > 100 µM | 76.4 µM | 41.5 µM | 73 µM | IC50 [5]: 26.6 µM
6 | Nc1ccc(-c2cnc3[nH]c(-c4ccccc4)nc3c2)cc1 [Compound 18, 4-(2-phenyl-3H-imidazo [4,5-b]pyridin-6-yl)aniline hydrochloride] | – | – | – | – | – | – | – | – | IC50 [3]: 84.7 µM; IC50 [4]: > 100 µM; IC50 [5]: 7.29 µM; IC50 [6]: 34.8 µM; IC50 [7]: > 100 µM; IC50 [8]: 70.9 µM; IC50 [9]: 46.1 µM; IC50 [10]: 63.6 µM
7 | COc1ccc(-c2cnc3c(c2)nc(-c2ccccc2)n3C)cc1 [Compound 20, 6-(4-methoxyphenyl)-3-methyl-2-phenyl-3H-imidazo [4,5-b]pyridine] | > 100 µM | > 100 µM | > 100 µM | 86 µM | > 100 µM | > 100 µM | 62.5 µM | > 100 µM | –
8 | Cn1c(-c2ccccc2)nc2cc(-c3ccc(C#N)cc3)cnc21 [Compound 21, 4-(3-methyl-2-phenyl-3H-imidazo [4,5-b]pyridin-6-yl)benzonitrile] | > 100 µM | > 100 µM | > 100 µM | 62.8 µM | > 100 µM | > 100 µM | 83.1 µM | > 100 µM | –
9 | Cn1c(-c2ccccc2)nc2cc(-c3ccc([N+](=O)[O-])cc3)cnc21 [Compound 23, 3-methyl-6-(4-nitrophenyl)-2-phenyl-3H-imidazo [4,5-b]pyridine] | > 100 µM | > 100 µM | > 100 µM | 72.9 µM | > 100 µM | > 100 µM | 89.9 µM | > 100 µM | –
10 | Cn1c(-c2ccccc2)nc2cc(-c3ccc(N)cc3)cnc21 [Compound 24, 4-(3-methyl-2-phenyl-3H-imidazo [4,5-b]pyridin-6-yl)aniline] | 62.2 µM | > 100 µM | 63 µM | – | 81.6 µM | 78.5 µM | 36.2 µM | 55.8 µM | IC50 [6]: 54.4 µM
11 | Cn1c(-c2ccccc2)nc2cc(-c3ccc(N)cc3)cnc21 [Compound 25, 4-(3-methyl-2-phenyl-3H-imidazo [4,5-b]pyridin-6-yl)aniline hydrochloride] | – | – | – | – | – | – | – | – | IC50 [3]: 39 µM; IC50 [4]: 56.2 µM; IC50 [5]: 67.3 µM; IC50 [6]: 25.5 µM; IC50 [7]: > 100 µM; IC50 [8]: > 100 µM; IC50 [9]: 23.7 µM; IC50 [10]: 59.1 µM
12 | COc1cc([C@@H]2c3cc4c(cc3[C@@H](O[C@@H]3O[C@@H]5CO[C@@H](C)O[C@H]5[C@H](O)[C@H]3O)[C@H]3COC(=O)[C@H]23)OCO4)cc(OC)c1O [ETO, etoposide, reference compound] | 2.35 µM | 2.55 µM | 0.1 µM | 0.05 µM | 4.6 µM | 0.6 µM | 0.37 µM | 1.37 µM | –
13 | COc1c(C)c2c(c(O)c1C/C=C(\C)CCC(=O)O)C(=O)OC2 [Mycoph. acid, mycophenolic acid] | – | – | – | – | – | – | – | – | EC50 [11]: 0.8 µM; EC50 (Sindbis virus (SINDV)): > 100 µM; EC50 [1]: > 100 µM; EC50 (Zika virus (ZIKV)): 25.2 µM; CC50 (in vitro [2]): > 100 µM; EC50 (yellow fever virus (YFV)): 0.6 µM
14 | NC(=O)c1ncn([C@@H]2O[C@H](CO)[C@@H](O)[C@H]2O)n1 [Ribavirin, ribavirin] | – | – | – | – | – | – | – | – | EC50 [11]: 35.7 µM; EC50 [12]: 12.3 µM; CC50 (in vitro [13]): > 250 µM; EC50 [14]: 217 µM; CC50 (in vitro [2]): > 250 µM; EC50 (yellow fever virus (YFV)): 235 µM; EC50 [15]: 6.6 µM; EC50 [16]: 45.8 µM; EC50 [17]: 97.6 µM; EC50 [18]: 5.2 µM; EC50 [19]: 83.3 µM
15 | CC(N)C12CC3CC(CC(C3)C1)C2 (stereo not shown) [Rimantadin, rimantadine] | – | – | – | – | – | – | – | – | EC50 [12]: 0.06 µM; CC50 (in vitro [13]): > 100 µM; EC50 [15]: 0.08 µM; EC50 [18]: > 100 µM
16 | CC(=O)N[C@H]1[C@H]([C@H](O)[C@H](O)CO)OC(C(=O)O)=C[C@@H]1N=C(N)N [Zanamivir, zanamivir] | – | – | – | – | – | – | – | – | EC50 [12]: 68.1 µM; CC50 (in vitro [13]): > 100 µM; EC50 [15]: 0.3 µM; EC50 [18]: 0.5 µM
